US8802700B2 (Vertex Pharmaceuticals Incorporated, priority 2010, dated 2014)

molecular target: T1, ΔF508-CFTR (Homo sapiens, UniProt P13569, DEL508-508); assay: Membrane potential optical assay (FRET voltage-sensor dyes, VIPR), identification of potentiator compounds; assay type: cell-based; details: Table 3; assay not given
T1 construct: expressed in transfected cells
Method in brief: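 NIH3T3 mouse fibroblasts stably expressing ΔF508-CFTR, cultured 24 h at 27 °C, were loaded with FRET voltage dyes CC2-DMPE and DiSBAC2(3). Double-addition format: first addition of Cl⁻-free (gluconate) medium with or without compound; membrane-potential change read as fluorescence on VIPR II.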

T1 sequence (P13569 with tags, fused parts or gaps DEL508-508): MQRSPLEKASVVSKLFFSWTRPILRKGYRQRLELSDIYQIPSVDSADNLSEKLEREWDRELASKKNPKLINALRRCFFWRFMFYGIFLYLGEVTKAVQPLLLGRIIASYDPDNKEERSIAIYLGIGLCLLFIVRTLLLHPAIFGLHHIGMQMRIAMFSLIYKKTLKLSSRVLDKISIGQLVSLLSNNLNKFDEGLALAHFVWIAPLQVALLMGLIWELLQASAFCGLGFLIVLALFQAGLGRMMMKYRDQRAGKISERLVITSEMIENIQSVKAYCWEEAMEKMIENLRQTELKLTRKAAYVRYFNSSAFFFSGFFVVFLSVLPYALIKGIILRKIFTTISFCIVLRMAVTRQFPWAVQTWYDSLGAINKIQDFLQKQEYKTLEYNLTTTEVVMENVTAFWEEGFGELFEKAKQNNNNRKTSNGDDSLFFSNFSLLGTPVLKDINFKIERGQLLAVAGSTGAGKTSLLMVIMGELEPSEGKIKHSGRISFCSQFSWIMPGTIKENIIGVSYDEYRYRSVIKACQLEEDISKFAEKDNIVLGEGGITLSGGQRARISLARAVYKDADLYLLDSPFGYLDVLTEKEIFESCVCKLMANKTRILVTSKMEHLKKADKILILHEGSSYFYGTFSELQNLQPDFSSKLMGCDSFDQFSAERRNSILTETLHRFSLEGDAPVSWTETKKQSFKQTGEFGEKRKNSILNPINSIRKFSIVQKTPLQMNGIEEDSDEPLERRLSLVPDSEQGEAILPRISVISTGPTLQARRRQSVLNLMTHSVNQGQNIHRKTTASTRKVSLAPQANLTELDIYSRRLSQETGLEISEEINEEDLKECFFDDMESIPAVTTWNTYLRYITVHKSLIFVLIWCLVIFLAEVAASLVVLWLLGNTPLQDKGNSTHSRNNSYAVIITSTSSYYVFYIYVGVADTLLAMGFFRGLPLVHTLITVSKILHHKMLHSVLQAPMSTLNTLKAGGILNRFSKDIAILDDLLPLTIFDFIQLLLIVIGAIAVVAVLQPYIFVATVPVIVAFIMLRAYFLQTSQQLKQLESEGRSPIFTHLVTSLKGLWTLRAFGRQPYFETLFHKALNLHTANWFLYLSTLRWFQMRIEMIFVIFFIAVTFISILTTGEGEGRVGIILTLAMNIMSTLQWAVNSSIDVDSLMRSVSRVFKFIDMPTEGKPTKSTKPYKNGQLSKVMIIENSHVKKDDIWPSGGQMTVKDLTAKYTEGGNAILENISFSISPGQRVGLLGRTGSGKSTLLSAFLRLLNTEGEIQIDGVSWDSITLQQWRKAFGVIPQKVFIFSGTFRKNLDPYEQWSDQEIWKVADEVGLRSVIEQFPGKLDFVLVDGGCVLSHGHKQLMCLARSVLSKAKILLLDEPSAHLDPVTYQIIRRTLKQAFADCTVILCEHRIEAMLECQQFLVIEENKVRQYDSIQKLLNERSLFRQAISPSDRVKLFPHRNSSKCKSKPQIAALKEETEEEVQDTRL

EC50 [µM] | SMILES
< 10 | CSc1ccccc1-c1ccccc1NC(=O)c1c[nH]c2ccccc2c1=O [Compound 279, N-[2-(2-methylsulfanylphenyl)phenyl]-4-oxo-1H-quinoline-3-carboxamide]
< 10 | O=C(Nc1cccnc1Oc1ccc(F)cc1F)c1c[nH]c2ccccc2c1=O [Compound 385, N-[2-(2,4-difluorophenoxy)-3-pyridyl]-4-oxo-1H-quinoline-3-carboxamide]
< 10 | O=C(Nc1ccccc1-c1ccc(Cl)cc1Cl)c1c[nH]c2ccccc2c1=O [Compound 139, N-[2-(2,4-dichlorophenyl)phenyl]-4-oxo-1H-quinoline-3-carboxamide]

same assay, conditions: Table 3; assay not given; read-out: % Activity (% Efficacy, relative efficacy)

Emax [%] | SMILES
25 to 100 | Cc1ccc2[nH]cc(C(=O)Nc3cc(O)c(C(C)(C)C)cc3C(C)(C)C)c(=O)c2c1 [Compound 688, N-(5-hydroxy-2,4-ditert-butyl-phenyl)-6-methyl-4-oxo-1H-quinoline-3-carboxamide]
25 to 100 | CSc1ccccc1-c1ccccc1NC(=O)c1c[nH]c2ccccc2c1=O [Compound 279, N-[2-(2-methylsulfanylphenyl)phenyl]-4-oxo-1H-quinoline-3-carboxamide]
25 to 100 | Cc1cccc2[nH]cc(C(=O)Nc3cc4[nH]ccc4cc3C(C)(C)C)c(=O)c12 [Compound 565, 5-methyl-4-oxo-N-(5-tert-butyl-1H-indol-6-yl)-1H-quinoline-3-carboxamide]
25 to 100 | O=C(Nc1cccnc1Oc1ccc(F)cc1F)c1c[nH]c2ccccc2c1=O [Compound 385, N-[2-(2,4-difluorophenoxy)-3-pyridyl]-4-oxo-1H-quinoline-3-carboxamide]
< 25 | CC(C)(C)c1ccc(NC(=O)c2c[nH]c3ccccc3c2=O)cc1CN [Compound 390, N-[3-(Aminomethyl)-4-tert-butyl-phenyl]-4-oxo-1H-quinoline-3-carboxamide]
25 to 100 | O=C(Nc1ccccc1-c1ccccc1C(F)(F)F)c1c[nH]c2ccccc2c1=O [Compound 11, 4-oxo-N-[2-[2-(trifluoromethyl)phenyl]phenyl]-1H-quinoline-3-carboxamide]
25 to 100 | O=C(Nc1cccnc1Oc1ccccc1F)c1c[nH]c2ccccc2c1=O [Compound 435, N-[2-(2-fluorophenoxy)-3-pyridyl]-4-oxo-1H-quinoline-3-carboxamide]
25 to 100 | C[C@H]1CCCN1c1ccc(NC(=O)c2c[nH]c3ccc(F)cc3c2=O)c(C(F)(F)F)c1 [Compound 714, (S)-6-fluoro-N-(4-(2-methylpyrrolidin-1-yl)-2-(trifluoromethyl)phenyl)-4-oxo-1,4-dihydroquinoline-3-carboxamide]
25 to 100 | Nc1cc(NC(=O)c2c[nH]c3ccccc3c2=O)ccc1Cl [Compound 453, N-(3-amino-4-chloro-phenyl)-4-oxo-1H-quinoline-3-carboxamide]
25 to 100 | N#Cc1cccc(-c2ccccc2NC(=O)c2c[nH]c3ccccc3c2=O)c1 [Compound 83, N-[2-(3-cyanophenyl)phenyl]-4-oxo-1H-quinoline-3-carboxamide]
25 to 100 | O=C(Nc1cc(C(F)(F)F)ccc1C(F)(F)F)c1c[nH]c2ccccc2c1=O [Compound 630, N-[2,5-bis(trifluoromethyl)phenyl]-4-oxo-1H-quinoline-3-carboxamide]
25 to 100 | CCCc1ccc(N(C)C)cc1NC(=O)c1c[nH]c2ccccc2c1=O [Compound 98, N-(5-dimethylamino-2-propyl-phenyl)-4-oxo-1H-quinoline-3-carboxamide]
< 25 | Cc1cccc(NC(=O)c2c[nH]c3ccccc3c2=O)c1C#N [Compound 201, N-(2-cyano-3-methyl-phenyl)-4-oxo-1H-quinoline-3-carboxamide]
25 to 100 | COc1cc(NC(=O)c2c[nH]c3ccc(F)cc3c2=O)cc(C(F)(F)F)c1 [Compound 666, 6-fluoro-N-[3-methoxy-5-(trifluoromethyl)phenyl]-4-oxo-1H-quinoline-3-carboxamide]
25 to 100 | CC(C)c1ccc(NC(=O)c2c[nH]c3c(F)cccc3c2=O)c(C(F)(F)F)c1 [Compound 573, 8-fluoro-N-[4-isopropyl-2-(trifluoromethyl)phenyl]-4-oxo-1H-quinoline-3-carboxamide]
25 to 100 | CC(C)(C)c1cc(NC(=O)c2c[nH]c3ccccc3c2=O)c(O)c(C(C)(C)C)c1 [Compound 136, N-(2-hydroxy-3,5-ditert-butyl-phenyl)-4-oxo-1H-quinoline-3-carboxamide]

Emax [%] | SMILES
25 to 100 | CCc1ccc2ncc(C(=O)Nc3ccc4cc[nH]c4c3)c(O)c2c1 [Compound 67, 6-ethyl-4-hydroxy-N-(1H-indol-6-yl)quinoline-3-carboxamide]
25 to 100 | Cc1ccc(-c2ccccc2NC(=O)c2c[nH]c3ccccc3c2=O)cc1 [Compound 181, 4-oxo-N-[2-(p-tolyl)phenyl]-1H-quinoline-3-carboxamide]
< 25 | O=C(Nc1ccc(C(F)(F)F)nc1)c1c[nH]c2ccccc2c1=O [Compound 197, 4-oxo-N-[6-(trifluoromethyl)-3-pyridyl]-1H-quinoline-3-carboxamide]
25 to 100 | CC(C)(C)CC(=O)Nc1ccc(C(C)(C)C)c(NC(=O)c2c[nH]c3ccccc3c2=O)c1 [Compound 196, N-[5-(3,3-dimethylbutanoylamino)-2-tert-butyl-phenyl]-4-oxo-1H-quinoline-3-carboxamide]
25 to 100 | O=C(Nc1cccc(-c2cccs2)c1)c1c[nH]c2ccccc2c1=O [Compound 549, 4-oxo-N-[3-(2-thienyl)phenyl]-1H-quinoline-3-carboxamide]
25 to 100 | CCOC(=O)[C@H]1CCCN(c2ccc(NC(=O)c3c[nH]c4ccccc4c3=O)c(C(F)(F)F)c2)C1 [Compound 660, (S)-ethyl 1-(4-(4-oxo-1,4-dihydroquinoline-3-carboxamido)-3-(trifluoromethyl)phenyl)piperidine-3-carboxylate]
< 25 | Cc1ccc2c(c1)c(=O)c(C(=O)Nc1ccccc1)cn2C [Compound 394, 1,6-dimethyl-4-oxo-N-phenyl-1H-quinoline-3-carboxamide]
25 to 100 | Cc1c[nH]c2cccc(NC(=O)c3c[nH]c4ccccc4c3=O)c12 [Compound 338, N-(3-methyl-1H-indol-4-yl)-4-oxo-1H-quinoline-3-carboxamide]
25 to 100 | O=C(Nc1ccc2cn[nH]c2c1)c1c[nH]c2ccccc2c1=O [Compound 284, N-(1H-indazol-6-yl)-4-oxo-1H-quinoline-3-carboxamide]
25 to 100 | O=C(Nc1ccc(N2CCCC2)cc1C(F)(F)F)c1c[nH]c2ccccc2c1=O [Compound 658, 4-oxo-N-[4-pyrrolidin-1-yl-2-(trifluoromethyl)phenyl]-1H-quinoline-3-carboxamide]
25 to 100 | O=C(Nc1cccc(SC(F)(F)F)c1)c1c[nH]c2ccccc2c1=O [Compound 456, 4-oxo-N-[3-(trifluoromethylsulfanyl)phenyl]-1H-quinoline-3-carboxamide]
25 to 100 | O=C(Nc1ccccc1-c1ccc(Cl)cc1Cl)c1c[nH]c2ccccc2c1=O [Compound 139, N-[2-(2,4-dichlorophenyl)phenyl]-4-oxo-1H-quinoline-3-carboxamide]
25 to 100 | O=C(Nc1cc2[nH]ccc2cc1F)c1c[nH]c2cccc(O)c2c1=O [Compound 596, N-(5-fluoro-1H-indol-6-yl)-5-hydroxy-4-oxo-1H-quinoline-3-carboxamide]
25 to 100 | CCOc1ccc(-c2ccccc2NC(=O)c2c[nH]c3ccccc3c2=O)cc1 [Compound 348, N-[2-(4-ethoxyphenyl)phenyl]-4-oxo-1H-quinoline-3-carboxamide]
25 to 100 | O=C(Nc1cccc2c1CCC2)c1c[nH]c2ccccc2c1=O [Compound 373, N-indan-4-yl-4-oxo-1H-quinoline-3-carboxamide]
25 to 100 | COc1cccc(NC(=O)c2c[nH]c3ccccc3c2=O)c1 [Compound 408, N-(3-methoxyphenyl)-4-oxo-1H-quinoline-3-carboxamide]
